The record followed here is ChEMBL document CHEMBL3865842, “Spirobisnaphthalenes and lactones from the seeds of Strychnos angustiflora with potential anti-inflammatory activity” (Bioorg Med Chem Lett, 2016).

The structures appear in SMILES notation. A value given as a limit tells only on which side of the number the result lay.

Series [1] concerns BV-2. As to the kind of experiment: Inhibition of LPS-induced nitric oxide production in mouse BV2 cells pretreated for 1 hr before LPS stimulation measured after 24 hrs by Griess assay. The series is classed as functional, cell-based.
Series [2] in a line: Cytotoxicity against human HCT116 cells at 10 uM measured after 72 hrs by MTT assay. Conditions: hct-116, 72 h. The series is classed as toxicity, cell-based.
The nature of series [3]: Cytotoxicity against human HepG2 cells at 10 uM measured after 72 hrs by MTT assay. Type of series: toxicity, cell-based. Conditions: hepg2, 72 h.
The nature of series [4]: Cytotoxicity against human BGC823 cells at 10 uM measured after 72 hrs by MTT assay. Type of series: toxicity, cell-based. Conditions: bgc-823, 72 h.
Series [5] can be described thus: Cytotoxicity against human NCI-H1650 cells at 10 uM measured after 72 hrs by MTT assay. Type of series: toxicity, cell-based. Conditions: nci-h1650, 72 h.
A short description of series [6]: Cytotoxicity against human A2780 cells at 10 uM measured after 72 hrs by MTT assay. Type of series: toxicity, cell-based. Conditions: a2780, 72 h.

On to `COc1cc(O)cc2c1C(=O)O[C@@H](C)CCCCCCC2` [LASIODIPLODIN], for which the half-inhibitory concentration (IC50) in series [1] was over 100 µM. The Activity entry in series [2], in series [3], in series [4], in series [5] and in series [6] was “Non-Toxic” in each case.

On to `COc1cc(O)cc2c1C(=O)O[C@@H](C)CCC[C@@H](O)CCC2`, for which the IC50 in series [1] was over 100 µM. Besides, the Activity result in series [2], in series [3], in series [4], in series [5] and in series [6] was “Non-Toxic” throughout.

On to `Oc1cccc2c1[C@H](O)C[C@@H](O)C21Oc2cccc3cccc(c23)O1`, for which the concentration for half-maximal inhibition (IC50) in series [1] was 67.6 µM. In addition, the Activity result in series [2], in series [3], in series [4], in series [5] and in series [6] was “Non-Toxic” in each case.

For `Oc1cccc2c1[C@@H](O)[C@H](O)[C@@H](O)C21Oc2cccc3cccc(c23)O1`, the half-inhibitory concentration (IC50) in series [1] is over 100 µM. Moreover, the Activity entry in series [2], in series [3], in series [4], in series [5] and in series [6] was “Non-Toxic” each time.

On to `Oc1cccc2c1[C@H](O)[C@@H]1O[C@@H]1C21Oc2cccc3cccc(c23)O1`, for which the IC50 in series [1] turned out to be 4.85 µM. Moreover, the Activity result in series [2], in series [3], in series [4], in series [5] and in series [6] was “Non-Toxic” each time.

On to `CO[C@H]1c2c(O)cccc2C2(Oc3cccc4cccc(c34)O2)[C@H](O)[C@H]1O`, for which the 50% inhibitory concentration (IC50) in series [1] amounted to 25.7 µM. Moreover, the Activity result in series [2], in series [3], in series [4], in series [5] and in series [6] was “Non-Toxic” throughout.

As for `COc1cc(O)cc2c1C(=O)O[C@@H](C)CCC[C@H](O)CCC2`, in series [1], the IC50 is 87.1 µM. The Activity entry in series [2], in series [3], in series [4], in series [5] and in series [6] was “Non-Toxic” each time.

Consider `O=C1CC[C@]23Oc4ccc(O)c5c4[C@](Oc4cccc1c42)(O3)[C@@H]1O[C@@H]1[C@@H]5O`, for which the half-maximal inhibitory concentration (IC50) in series [1] worked out at 11.7 µM. For the same molecule, the Activity result in series [2], in series [3], in series [4], in series [5] and in series [6] was “Non-Toxic” each time.

Take `O=C1C[C@@H](O)[C@]23Oc4cccc5c4[C@](CC[C@@H]5O)(Oc4ccc(O)c1c42)O3`: the concentration for half-maximal inhibition (IC50) in series [1] is over 100 µM. The Activity result in series [2], in series [3], in series [4], in series [5] and in series [6] was “Non-Toxic” in each case.

For `O=C1CC[C@]23Oc4ccc(O)c5c4[C@](Oc4cccc1c42)(O3)[C@H](O)CC5=O`, the IC50 in series [1] is over 100 µM. Also, the Activity entry in series [2], in series [3], in series [4], in series [5] and in series [6] was “Non-Toxic” each time.

Consider `Oc1cccc2c1[C@@H](O)[C@H]1O[C@H]1C21Oc2cccc3cccc(c23)O1`, for which the half-inhibitory concentration (IC50) in series [1] came to 2.05 µM. The Activity entry in series [2], in series [3], in series [4], in series [5] and in series [6] was “Non-Toxic” throughout.

For the molecule `COc1cc(/C=C/C(=O)CC(=O)/C=C/c2ccc(O)c(OC)c2)ccc1O` [CURCUMIN], the IC50 in series [1] came to 1.42 µM.

Take `CO[C@@H]1CC(=O)c2cccc3c2[C@@]12Oc1ccc(O)c4c1[C@](O3)(O2)[C@@H]1O[C@@H]1[C@@H]4O` [PREUSSOMERIN C]: the IC50 in series [1] is 1.16 µM. In addition, the Activity entry in series [2], in series [3], in series [4], in series [5] and in series [6] was “Non-Toxic” in each case.
